Like-named read-outs stand apart in the source and are kept apart here.
What was measured:
Assay type in all cases: in vivo, human
end-stage scleroderma = assay: Treatment of end stage scleroderma with leuprolide acetate; conditions: Patient 6, 0.5 mg daily s.c.
Experimental: Patient number 6 was in end-stage scleroderma. They had been bed-ridden for approximately eight months, unable to retain food after eating, and was being maintained on total parental hyperalimentation (TPN) to keep up body weight and fluid and electrolyte balance for five months. This patient was treated with 0.5 mg Leuprolide acetate daily, by subcutaneous injection according to the protocol of example 1.

[1] = test system: functional bowel disorders
Source text: The symptoms of the two patients with GMD were abdominal pain located in the right upper quadrant and epigastrium, daily nausea, and intermittent vomiting exacerbated by eating and by the luteal phase of the menstrual cycle. The two patients with IIHVN had abdominal pain, nausea, and intermittent vomiting, and also had urinary tract involvement consisting of pain and a decrease in urination. The fifth patient had Roux-en-Y syndrome (defined as epigastric-to-right-upper-quadrant pain, nausea, and vomiting increased by eating) after surgical construction of a gastro-jejunal Roux-en-Y anastomosis. The mean duration of these symptoms was eight years (Table 1). All subjects had undergone extensive blood testing, several upper gastrointestinal x-ray series, barium enemas, esophagogastroduodenoscopy, endoscopic retrograde cholangiopancreatography, gastric emptying tests with radiolabeled meal, ultrasound of the abdomen, computerized axial tomography of the abdomen, and many other tests. The results of all tests were normal, except for prolonged gastric emptying in the patient with the Roux-en-Y Syndrome. Because of their intractable clinical problem, these patients were included in the test protocol with leuprolide acetate. Protocol: The symptoms of each patient were first assessed, and their tests evaluated. Each patient kept a daily symptom diary. Leuprolide acetate was obtained by prescription as Lupron (TAP pharmaceuticals, Abbott Labs, North Chicago, Ill.). One multi-use vial of Lupron comprised of […] Leuprolide Acetate. A daily dose of 0.5 mg ([…]) was self-administered by subcutaneous injection, for a period of three months. Each patient was examined at 0, 1 and 3 months of treatment. After the third month, leuprolide was continued as previously, and estrogen (0.625 mg orally) and calcium (1000 mg orally) were also administered. At the end of the sixth month, a two week withdrawal period from leuprolide acetate ensued. During this period a 10 mg oral dose of progesterone was given to pre-menopausal patients, to assess recurrence of symptoms and to induce menses. Post-menopausal women were not treated with progesterone during the two week withdrawal period. This procedure was then continued for an additional six months, with drug withdrawal and progesterone given every three months to induce a menstrual cycle. Serum estradiol, progesterone, FSH, and LH were quantitated by radioimmunoassay prior to the initiation of leuprolide treatment, and at three months post treatment initiation. The procedure of example 1 was followed with additional patients. […] One patient listed as a failure elected to withdraw from the program after four weeks of treatment. One patient after recovering from the symptoms of their autonomic neuropathy expired from a massive myocardial infarction (Responded--expired). These patients were treated with Leuprolide acetate following the protocol established in Example 1.

[2] = test system: GI disorders secondary to SLE; assay: Treatment of patients with GI disorders secondary to Systemic Lupus Erythematosus: clinical outcome; conditions: for GI symptoms: within eight weeks
Experimental: Daily treatment with 2.0 mg luprolide acetate (Lupron, Tapp Abbott Pharmaceutical Company) was given daily by subcutaneous injection. […] Treatment with 1.25 mg. of leuprolide acetate (Lupron) was given daily by subcutaneous injection. […] Daily administration of 1.75 mg of luprolide acetate (Lupron) was administered subcutaneously. […] This patient has been hospitalized several times since beginning luprolide acetate therapy for exacerbations of their SLE, but the GI tract has not been a factor. Their debilitating symptoms have been controlled, and they were able to return to work. Daily administration of 1.5 mg of luprolide acetate (Lupron) was given by subcutaneous injection. Within eight weeks of Lupron therapy, their GI symptoms were controlled. […] Daily administration of 1.75 mg luprolide acetate (Lupron) was given subcutaneously. After six months of Lupron therapy, motility recordings were again performed. Ten migrating motor complexes per 12 hour recording session were seen. These complexes were organized and appeared more typical of a controlled tracing, showing normal cycling activity in the stomach and small intestine. […] Their hydrogen breath test was unchanged.

[3] = test system: functional bowel disease (IIHVN), ovaries removed; assay: Effective dose of leuprolide acetate in patients having previous ovariectomy
Source text: Two patients discussed in Example 1 were women who had undergone surgery for removal of their ovaries. The first patient, Number 3, had undergone this surgery approximately two years prior to beginning Leuprolide acetate treatment. The second patient, Number 4, underwent ovariectomy 18 months […] beginning treatment with Leuprolide Acetate. In both cases, the effective dose of leuprolide acetate was higher than the effective dose required by patients who had not had ovaries removed.

[4] = SLE patient 1, 2.0 mg daily s.c.
[5] = SLE patient 2, 1.25 mg daily s.c., within approximately eight weeks
[6] = SLE patient 4, 1.5 mg daily s.c.

## CCNC(=O)[C@@H]1CCCN1C(=O)[C@H](CCCNC(=N)N)NC(=O)[C@H](CC(C)C)NC(=O)[C@@H](CC(C)C)NC(=O)[C@H](Cc1ccc(O)cc1)NC(=O)[C@H](CO)NC(=O)[C@H](Cc1c[nH]c2ccccc12)NC(=O)[C@H](Cc1c[nH]cn1)NC(=O)[C@@H]1CCC(=O)N1 [Leuprolide acetate, leuprolide acetate]
end-stage scleroderma
  Eating and body weight at discharge: eating without difficulty, and had gained weight
  Need for TPN feeding after five weeks of therapy: did not require the TPN feeding
end-stage scleroderma; bed-ridden before
  Mobility after five weeks of therapy: able to move about actively
[1]; Patient 7
  Duration of therapy until symptom free: ≤ 8 weeks
[1]; Patient 7, Pelvic Floor Dysfunction
  Response: symptom free
[1]; Patient 7, Pelvic Floor Dysfunction, listed as leuprolide
  Response: Responded
[1]; Patient 8, Chronic Intestinal Pseudo Obstruction, listed as leuprolide
  Response: Responded
[1]; Patient 8, Chronic Intestinal Pseudo Obstruction, listed as leuprolide acetate
  Response: does not chronically experience severe symptoms
[1]; Patient 8, before: at least one week per month in hospital
  Hospital admissions since therapy was begun: no hospital admissions
[1]; Patient 9, Roux-en-Y-Syndrome
  Response: Responded
[1]; Patient 10, Roux-en-Y-Syndrome, withdrew
  Response: Failure
[1]; Patient 11, Chronic Intestinal Pseudo Obstruction, side effects
  Response: Failure
[1]; Patient 12, Roux-en-Y-Syndrome, expired
  Response: Failure
[1]; Patient 13
  Need for parental alimentation for weight control: no longer requires parental alimentation
  Urination: improved
[1]; Patient 13, Idiopathic Intestinal Hollow Visceral Myopathy/Neuropathy, protocol of example 1
  Response: improved dramatically
[1]; Patient 13, Idiopathic Intestinal Hollow Visceral Myopathy/Neuropathy, protocol of example 1, listed as leuprolide
  Response: Responded
[1]; Patient 14, Pelvic Floor Dysfunction
  Response: Failure
[1]; Patient 15
  Need for parental supplementation: requires no parental supplementation
[1]; Patient 15, Chronic Intestinal Pseudo Obstruction
  Response: steadily improved
[1]; Patient 15, Chronic Intestinal Pseudo Obstruction, listed as leuprolide
  Response: Responded
[1]; Patient 16, Roux-en-Y-Syndrome
  Response: relieved
[1]; Patient 16, Roux-en-Y-Syndrome, listed as leuprolide
  Response: Responded
[1]; Patient 16, weight before 96 pounds
  Body weight maintained under therapy: 115-118 pounds
[1]; Patient 17
  Theophylline requirement for lung disease: smaller dose of Theophylline is now required
[1]; Patient 17, Gastrointestinal Motor Dysfunction, protocol of example 1
  Response: abated
[1]; Patient 17, Gastrointestinal Motor Dysfunction, protocol of example 1, listed as leuprolide
  Response: Responded
[1]; Patient 17, chronic obstructive lung disease
  Pulmonary function tests: dramatic improvement
[1]; Patient 18, Idiopathic Intestinal Hollow Visceral Myopathy/Neuropathy, protocol of example 1
  Response: all of their symptoms have improved except for their obstipation
[1]; Patient 18, Idiopathic Intestinal Hollow Visceral Myopathy/Neuropathy, protocol of example 1, listed as leuprolide
  Response: Responded
[1]; Patient 19
  Duration of therapy after which all symptoms had disappeared: 6 weeks
[1]; Patient 19, Gastrointestinal Motor Dysfunction, protocol of example 1, listed as leuprolide
  Response: Responded
[1]; Patient 19, discontinued after six months of treatment
  Course after the drug was discontinued: no recurrent disease
[1]; Patient 20, Gastrointestinal Motor Dysfunction, protocol of example 1
  Response: symptom-free
[1]; Patient 20, Gastrointestinal Motor Dysfunction, protocol of example 1, listed as leuprolide
  Response: Responded
[1]; Patient 21, Gastrointestinal Motor Dysfunction
  Response: Responded
[1]; Patient 22
  Swallowing and eating: now able to swallow and eat
[1]; Patient 22, Gastrointestinal Motor Dysfunction, response seen after three weeks of therapy
  Response: dramatic response
[1]; Patient 22, Gastrointestinal Motor Dysfunction, response seen after three weeks of therapy, listed as leuprolide
  Response: Responded
[1]; Patient 23
  Need of opiates for pain: did not require opiates for pain
[1]; Patient 23, Roux-en-Y-Syndrome
  Response: Responded
[1]; Patient 23, Roux-en-Y-Syndrome, listed as Lupron
  Response: symptom free
[1]; human, in vivo
  Side effects leading to withdrawal from treatment: bone pain
[1]; of the twenty-six treated to date
  Number of patients who failed to respond: Four
[1]; twenty-six patients treated to date
  Response of the majority of patients: full recovery
[2]; [4]
  Compliment levels (C3 and C4): returned to normal
  Hemoglobin, hematocrit, white blood cells and platelets: returned to normal
  Need of Imuran or prednisone to control SLE: no longer required Imuran or prednisone
  GI symptoms: free of the above described GI symptoms
[2]; [5]
  Body weight gained: 15-20 pounds
  Gastrointestinal symptoms: free of gastrointestinal symptoms
[2]; SLE patient 3, 1.75 mg daily s.c., required TPN before
  Oral food intake: able to eat soft, solid food by mouth
[2]; SLE patient 3, 1.75 mg daily s.c.
  GI symptoms: controlled
[2]; [6]
  Nutrition: able to eat and maintain their nutrition on liquid supplements taken by mouth
  GI symptoms: controlled
[2]; SLE patient 4, 1.5 mg daily s.c., oral intake
  Body weight within six months: did not gain weight, but they did not lose weight
[2]; SLE patient 5
  Effectiveness of therapy in an older, post menopausal patient: effective
[2]; SLE patient 5, after six months of therapy
  Eating and body weight: able to eat foods by mouth and gained weight
[3]; Patient 3, ovaries removed, initially 0.5 mg
  Daily dose needed to overcome symptoms: 2.0 mg
[3]; Patient 4, post-ovariectomy
  Effective daily dose that relieved symptoms: 2.0 mg
  Sufficiency of daily dose of 0.5 mg: not sufficient
[3]; Patient 4, prior to the removal of their ovaries
  Symptoms at daily dose of 0.5 mg: symptom free
[3]; Patients 3 and 4
  Effective dose compared with patients who had not had ovaries removed: higher
